Measurements taken from PubChem BioAssay AID248 (DTP/NCI, 2004).
“And” between values parts separate entries of the source, which are not always exact repeats. Equal entries are not always repeated. Toxic doses and inconclusive results are not listed. Cut-off read from the data, not from the text of the source: active = T/C of 150% or more; inactive = T/C below 125%.

Tested on: L1210 leukemia ip in BDF1 mice, survival T/C
Experiment: NCI In Vivo Anticancer Drug Screen. Data for tumor model L1210 Leukemia (intraperitoneal) in B6D2F1 (BDF1) mice
Conditions: endpoint: mean survival time, higher = longer survival
Procedure, shortened: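 Mice bearing the transplanted tumor received compound or vehicle. Survival of the treated group was divided by that of the vehicle-treated control group to give the ratio.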

[1] = dose: 100.0 mg/kg/injection, schedule: Q01DX009 (ip), vehicle: Klucel (hydroxypropylcellulose) (HPC)
[2] = dose: 100.0 mg/kg/injection, schedule: Q04DX002 (ip), vehicle: saline with Tween-80
[3] = dose: 200.0 mg/kg/injection, schedule: Q04DX002 (ip), vehicle: saline with Tween-80
[4] = dose: 400.0 mg/kg/injection, schedule: Q04DX002 (ip), vehicle: saline with Tween-80
[5] = dose: 400.0 mg/kg/injection, schedule: Q01DX001 (ip), vehicle: saline
[6] = dose: 5.0 mg/kg/injection, schedule: Q01DX001 (ip), vehicle: saline
[7] = dose: 200.0 mg/kg/injection, schedule: Q01DX009 (ip), vehicle: Klucel (hydroxypropylcellulose) (HPC)
[8] = dose: 75.0 mg/kg/injection, schedule: Q01DX001 (ip), vehicle: saline
[9] = dose: 150.0 mg/kg/injection, schedule: Q01DX001 (ip), vehicle: saline
[10] = dose: 100.0 mg/kg/injection, schedule: Q01DX009 (ip), vehicle: saline with Tween-80
[11] = dose: 100.0 mg/kg/injection, schedule: Q04DX003 (ip), vehicle: Klucel (hydroxypropylcellulose) (HPC)
[12] = dose: 100.0 mg/kg/injection, schedule: Q04DX003 (ip), vehicle: saline with Tween-80
[13] = dose: 200.0 mg/kg/injection, schedule: Q01DX009 (ip), vehicle: saline with Tween-80
[14] = dose: 200.0 mg/kg/injection, schedule: Q04DX003 (ip), vehicle: Klucel (hydroxypropylcellulose) (HPC)
[15] = dose: 200.0 mg/kg/injection, schedule: Q04DX003 (ip), vehicle: saline with Tween-80
[16] = dose: 400.0 mg/kg/injection, schedule: Q01DX009 (ip), vehicle: Klucel (hydroxypropylcellulose) (HPC)
[17] = dose: 400.0 mg/kg/injection, schedule: Q01DX009 (ip), vehicle: saline with Tween-80
[18] = dose: 400.0 mg/kg/injection, schedule: Q04DX003 (ip), vehicle: Klucel (hydroxypropylcellulose) (HPC)
[19] = dose: 400.0 mg/kg/injection, schedule: Q04DX003 (ip), vehicle: saline with Tween-80
[20] = dose: 100.0 mg/kg/injection, schedule: Q01DX001 (ip), vehicle: saline
[21] = dose: 200.0 mg/kg/injection, schedule: Q01DX001 (ip), vehicle: saline

Measured: T/C

CN1CCOC1=Nc1cccc2c1CCCC2
inactive: dose: 50.0 mg/kg/injection, schedule: Q01DX009 (ip), vehicle: other 96 % of control | dose: 100.0 mg/kg/injection, schedule: Q01DX009 (ip), vehicle: other 101 % of control | dose: 400.0 mg/kg/injection, schedule: Q01DX009 (ip), vehicle: other 95 % of control

O=S(=O)(O)Cc1c(O)ccc2ccccc12
inactive: dose: 25.0 mg/kg/injection, schedule: Q01DX009 (ip), vehicle: Klucel (hydroxypropylcellulose) (HPC) 96 % of control | dose: 50.0 mg/kg/injection, schedule: Q01DX009 (ip), vehicle: Klucel (hydroxypropylcellulose) (HPC) 104 % of control | [1] 96 % of control | [2] 100 % of control | [3] 100 % of control | [4] 103 % of control

O=c1[nH]cncc1F
inactive: dose: 264.0 mg/kg/injection, schedule: Q01DX001 (ip), vehicle: saline 92 % of control | [5] 100 % of control and 112 % of control

CC[P+](CCCCCCCCC[P+](CC)(Cc1ccccc1)c1ccccc1)(Cc1ccccc1)c1ccccc1 (stereo not drawn)
inactive: [6] 105 % of control

CCCSc1ccc2c3c(cccc13)C(=O)OC2=O
inactive: [1] 101 % of control | [7] 98 % of control

CCCCOC(=O)Nc1ccccc1
inactive: dose: 100.0 mg/kg/injection, schedule: Q04DX003 (ip), vehicle: gum acacia 101 % of control | dose: 200.0 mg/kg/injection, schedule: Q04DX003 (ip), vehicle: gum acacia 108 % of control | dose: 400.0 mg/kg/injection, schedule: Q04DX003 (ip), vehicle: gum acacia 109 % of control

CCCCCCCCCC/C=N\N=C(N)N
inactive: dose: 15.0 mg/kg/injection, schedule: Q01DX Z (ip), vehicle: other 107 % of control | dose: 15.0 mg/kg/injection, schedule: Q01DX Z (oral), vehicle: carboxymethylcellulose (CMC) 96 % of control | dose: 30.0 mg/kg/injection, schedule: Q01DX Z (ip), vehicle: other 97 % of control | dose: 30.0 mg/kg/injection, schedule: Q01DX Z (oral), vehicle: carboxymethylcellulose (CMC) 103 % of control | dose: 60.0 mg/kg/injection, schedule: Q01DX Z (oral), vehicle: carboxymethylcellulose (CMC) 96 % of control | dose: 120.0 mg/kg/injection, schedule: Q01DX Z (oral), vehicle: carboxymethylcellulose (CMC) 103 % of control

O=S(=O)(O)O.[N-]=C(N)/N=C(\[NH-])N.[N-]=C(N)/N=C(\[NH-])N.[N-]=C(N)NC(=[N-])N.[Rh+3]
inactive: dose: 12.5 mg/kg/injection, schedule: Q04DX003 (ip), vehicle: saline 91 % of control | dose: 25.0 mg/kg/injection, schedule: Q01DX009 (ip), vehicle: saline 118 % of control | dose: 25.0 mg/kg/injection, schedule: Q04DX003 (ip), vehicle: saline 109 % of control | dose: 50.0 mg/kg/injection, schedule: Q01DX009 (ip), vehicle: saline 98 % of control | dose: 50.0 mg/kg/injection, schedule: Q04DX003 (ip), vehicle: saline 96 % of control

COC1C=CC2C3Cc4ccc(O)c5c4C2(CCN3C)C1O5 (stereo not drawn)
inactive: [8] 104 % of control | [9] 103 % of control

CSc1cccc(NC(=O)/C=C/C(=O)O)c1
inactive: dose: 75.0 mg/kg/injection, schedule: Q01DX009 (ip), vehicle: Klucel (hydroxypropylcellulose) (HPC) 98 % of control | dose: 150.0 mg/kg/injection, schedule: Q01DX009 (ip), vehicle: Klucel (hydroxypropylcellulose) (HPC) 93 % of control | dose: 300.0 mg/kg/injection, schedule: Q01DX009 (ip), vehicle: Klucel (hydroxypropylcellulose) (HPC) 93 % of control

Brc1cnc(OCc2ccccc2)nc1OCc1ccccc1
inactive: [1] 91 % of control | [10] 103 % of control | [11] 96 % of control | [12] 103 % of control | [7] 102 % of control | [13] 102 % of control | [14] 100 % of control | [15] 97 % of control | [16] 104 % of control | [17] 101 % of control | [18] 93 % of control | [19] 92 % of control

CC(=O)[O][Hg][c]1ccc(Cl)cc1
inactive: [6] 89 % of control | dose: 10.0 mg/kg/injection, schedule: Q01DX001 (ip), vehicle: saline 94 % of control | dose: 20.0 mg/kg/injection, schedule: Q01DX001 (ip), vehicle: saline 96 % of control | dose: 40.0 mg/kg/injection, schedule: Q01DX001 (ip), vehicle: saline 89 % of control | dose: 80.0 mg/kg/injection, schedule: Q01DX001 (ip), vehicle: saline 91 % of control

CC1(C)N=C(N)N=C(N)N1c1cccc(CCCCc2c(Cl)cccc2Cl)c1
inactive: dose: 25.0 mg/kg/injection, schedule: Q01DX001 (ip), vehicle: saline 105 % of control | dose: 50.0 mg/kg/injection, schedule: Q01DX001 (ip), vehicle: saline 86 % of control | [20] 95 % of control

O=C(Nc1cccc(Cl)c1Cl)Sc1ccccc1O
inactive: [1] 104 % of control | [7] 97 % of control

Cc1cc(C)c(C(=O)OC(c2ccccc2)C(C)c2ccccc2)c(C)c1 (stereo not drawn)
inactive: [8] 94 % of control | [9] 94 % of control | dose: 300.0 mg/kg/injection, schedule: Q01DX001 (ip), vehicle: saline 89 % of control

Clc1ccc(/C=N/c2ccccn2)cc1
inactive: [20] 102 % of control | [21] 102 % of control | [5] 100 % of control

OC(C/C(CNNc1ccccc1)=N/Nc1ccccc1)(C(F)(F)F)C(F)(F)F
inactive: [11] 96 % of control | [14] 103 % of control | [18] 92 % of control

O=C(O)C1CCC(SSC2CCC(C(=O)O)CC2[N+](=O)[O-])C([N+](=O)[O-])C1 (stereo not drawn)
inactive: [2] 95 % of control | [3] 103 % of control | [4] 103 % of control

CCCCc1cccc2c1OCO2
inactive: [20] 103 % of control | [21] 103 % of control

COc1ccc(/C(N=Nc2ccccc2)=N/N=C(N)N)cc1
inactive: dose: 20.0 mg/kg/injection, schedule: Q01DX001 (ip), vehicle: steriod suspending solution 105 % of control | dose: 40.0 mg/kg/injection, schedule: Q01DX001 (ip), vehicle: steriod suspending solution 94 % of control | dose: 80.0 mg/kg/injection, schedule: Q01DX001 (ip), vehicle: steriod suspending solution 96 % of control

CCOC(=O)C(CC(=O)c1ccccc1)C(C)=O (stereo not drawn)
inactive: dose: 50.0 mg/kg/injection, schedule: Q01DX009 (ip), vehicle: saline with Tween-80 97 % of control | [10] 93 % of control | [13] 97 % of control

Cc1cc(C)c(C(N)=O)c(N)n1
inactive: [11] 105 % of control | [14] 90 % of control | [18] 106 % of control

O=C(O)CC(NC(=O)OCc1ccccc1)C(=O)OCc1ccccc1 (stereo not drawn)
inactive: [10] 107 % of control | [12] 104 % of control | [13] 93 % of control | [15] 107 % of control | [17] 91 % of control | [19] 96 % of control

O=C(Nn1cn[nH]c1=S)Oc1ccccc1
inactive: [12] 103 % of control | [15] 103 % of control

Nc1nc(N)c(N=Nc2ccc(Cl)cc2)c(Cl)n1
inactive: dose: 100.0 mg/kg/injection, schedule: Q01DX001 (ip), vehicle: carboxymethylcellulose (CMC) 94 % of control | dose: 200.0 mg/kg/injection, schedule: Q01DX001 (ip), vehicle: carboxymethylcellulose (CMC) 97 % of control | dose: 400.0 mg/kg/injection, schedule: Q01DX001 (ip), vehicle: carboxymethylcellulose (CMC) 94 % of control

O=C(Nc1ccccc1)c1ccccc1C(O)(c1ccccc1)c1ccc(Cl)cc1 (stereo not drawn)
inactive: [10] 92 % of control | [13] 90 % of control | [17] 93 % of control

CCCSCCNC(=O)NCCSCCC
inactive: dose: 100.0 mg/kg/injection, schedule: Q04DX002 (ip), vehicle: other 107 % of control | dose: 200.0 mg/kg/injection, schedule: Q04DX002 (ip), vehicle: other 104 % of control | dose: 400.0 mg/kg/injection, schedule: Q04DX002 (ip), vehicle: other 100 % of control

O=C(Nc1cc[n+](Cc2ccc(S(=O)(=O)F)cc2)cc1)c1ccccc1
inactive: [12] 96 % of control | [15] 98 % of control

O=c1[nH]cc(CCc2ccccc2)c(=O)[nH]1
inactive: [1] 105 % of control | [11] 94 % of control | [7] 96 % of control | [14] 94 % of control | [16] 98 % of control | [18] 93 % of control
